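How tested: cells in 96-well plates exposed to compound for 48 hours at five concentrations. GI50 = concentration required for 50% inhibition of growth. At the TGI there is no net growth.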
Legend:
Experiment in all cases: growth of human tumour cells (NCI), 48 h
KM12 colon = tested on: KM12 colon
786-0 renal = tested on: 786-0 renal
NCI-H522 lung = tested on: NCI-H522 lung
SW-620 colon = tested on: SW-620 colon
SF-268 CNS = tested on: SF-268 CNS
SF-539 CNS = tested on: SF-539 CNS
PC-3 prostate = tested on: PC-3 prostate
MDA-MB-435 = tested on: MDA-MB-435
HOP-92 NSCLC = tested on: HOP-92 NSCLC
MOLT-4 leukemia = tested on: MOLT-4 leukemia

Structure (SMILES) | GI50 (KM12 colon) [µM] | TGI (KM12 colon) [µM] | GI50 (786-0 renal) [µM] | TGI (786-0 renal) [µM] | GI50 (NCI-H522 lung) [µM] | TGI (NCI-H522 lung) [µM] | GI50 (SW-620 colon) [µM] | TGI (SW-620 colon) [µM] | GI50 (SF-268 CNS) [µM] | TGI (SF-268 CNS) [µM] | GI50 (SF-539 CNS) [µM] | TGI (SF-539 CNS) [µM] | GI50 (PC-3 prostate) [µM] | TGI (PC-3 prostate) [µM] | GI50 (MDA-MB-435) [µM] | TGI (MDA-MB-435) [µM] | GI50 (HOP-92 NSCLC) [µM] | TGI (HOP-92 NSCLC) [µM] | GI50 (MOLT-4 leukemia) [µM] | TGI (MOLT-4 leukemia) [µM]
COc1cccc(C2C(C#N)=C(N)Oc3cc(N)ccc32)c1 (stereo not drawn) | 0.442 | 45.9 | 0.632 | > 100 | 0.242 | 0.771 | 0.312 | > 100 | 1.57 | > 100 | 0.343 | 1.37 | 0.509 | > 100 | 0.138 | 0.672 | 0.31 | 58.3 | 0.563 | > 52.3
COc1ccc(Nn2c(SCC(=O)Nc3nc(-c4ccc(Cl)cc4)cs3)nc(C)c2C)cc1 | 1.84 | 11.1 | 3.46 | 18.2 | 5.05 | > 100 | 4.78 | > 100 | 2.81 | > 100 | 4.15 | > 100 | 2.65 | > 100 | 3.22 | > 100 | 2.42 | 7.8 | 2.54 | > 100
CCCCCCCC/C=C/CCCCCCCC1=NCC[N+]1(CCO)CCO | 1.87 | 3.61 | 4.8 | 22.1 | 1.61 | 4.46 | 1.82 | 4.38 | 3.25 | 13 | 3.7 | 13.1 | 1.97 | 6.17 | 2.35 | 7.95 | 1.62 | 5.53 | 2.23 | 6.58
CCNCC(=O)O[C@]1(CC)C(=O)OCc2c1cc1n(c2=O)Cc2cc3ccccc3nc2-1 | – | 13.4 | – | 1.05 | – | 7.97 | – | > 62.5 | – | > 100 | – | 0.574 | – | > 100 | – | 7.82 | – | 13.8 | – | 0.159
COc1cc(NCCCCN=C(N)NC(N)=NC(C)C)c2ncccc2c1 | 1.48 | 11.8 | 31 | > 100 | 0.929 | 3.93 | 5.76 | 22.2 | 3.83 | 17.9 | 8.14 | 22.2 | 2.22 | 16.8 | 12.9 | 26.7 | 1.28 | 12.5 | 3.28 | 16.6
CC(=O)c1c(C(F)(F)F)n([O-])c2ccc(Cl)cc2[n+]1=O | 0.364 | 2.39 | 0.0551 | 0.382 | 2.5 | 9.62 | 1.17 | – | 1.35 | 8.78 | 0.161 | 0.526 | – | 2.79 | 2.8 | 9.94 | 1.23 | 2.9 | – | 1.54
O=[N+]([O-])c1ccc(-c2nc(-c3ccccc3)c(-c3ccccc3)n2-c2ccccc2)cc1 | 2.3 | 5.6 | 4.82 | 22.3 | 3.05 | > 28.4 | 2.6 | 9.28 | 3.7 | 17.6 | 2.02 | 4.78 | 2.74 | > 31.1 | 2.5 | 7.63 | 2.42 | 7.44 | 2.28 | 11.5
C1CCN(CCC2CCCCN2)CC1 (stereo not drawn) | – | > 100 | – | > 100 | – | > 100 | – | > 100 | – | > 100 | – | > 100 | – | > 100 | – | > 100 | – | > 100 | – | > 100
N#Cc1c(-c2ccc(Cl)cc2)n(O)c2ccccc12 | 2.17 | 11.7 | 2.24 | 7.04 | 2.11 | 6.32 | 0.996 | 13.2 | 2.6 | 25.5 | 2.58 | 9.83 | 2.85 | 20.2 | 0.29 | 1.26 | 1.02 | 3.5 | 3.61 | 15.5
COc1ccc(NC(=O)n2nc(N)c3ccccc32)cc1OC | 67.9 | > 100 | > 100 | > 100 | 34.9 | > 100 | > 100 | > 100 | 49.6 | > 100 | 95.9 | > 100 | 35.5 | > 100 | > 100 | > 100 | 24.6 | > 100 | 39.4 | > 100
NC(=NCCCOc1ccc(Cl)cc1)Nc1ccc(Cl)cc1 | – | – | 2.15 | 6.67 | 2.05 | 4.8 | 1.94 | 5.59 | 3.1 | 13 | 1.83 | 3.72 | 2.1 | 6.29 | 1.76 | 3.37 | 1.51 | 5.53 | 1.66 | 4.66
NC(N)=NS(=O)(=O)c1ccc(NCc2c3ccccc3nc3ccccc23)cc1 | – | 70.1 | – | 9.65 | – | 26.9 | – | > 87.7 | – | 23.1 | – | 4.72 | – | > 100 | – | > 100 | – | 9.01 | – | > 16.5
CCOC(=O)c1sc2nc3sc(N=Nc4ccc(Cl)cc4)c(O)n3c(=S)c2c1C | 31.2 | > 100 | 32.4 | > 100 | 38.8 | > 100 | 35.4 | > 100 | 19.7 | 82 | 25.1 | 50.5 | 21.3 | > 100 | 35.2 | > 100 | 7.47 | 45.8 | > 100 | > 100
CCN(CC)CCCNc1cccc2c(SCc3ccccc3)ccnc12 | 1.75 | 3.38 | 1.56 | 2.99 | 1.51 | 3.1 | 1.7 | 3.46 | 1.51 | 3.33 | 1.63 | 3.13 | 1.86 | 4.88 | 1.84 | 3.65 | 2.18 | 7.32 | – | –

From PubChem BioAssay (NCI)
